What all share (type): cell-based
The target of experiment [1] is T1, EGFR L858R (Ba/F3 cells) (Homo sapiens, UniProt P00533, L858R).
T1 construct: expressed in transfected cells; host or cells: Ba/F3 (murine pro-B cells), retroviral transduction, puromycin selection, IL3-independent pool
The experiment can be described thus: Inhibitor activity on EGFR-dependent cell growth (CellTiter-Glo, 72 h), Ba/F3 EGFR L858R. As to conditions: read-out: BaF3 L858R IC50. Summed up: (§1)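 Ba/F3, retrovirally transduced, puromycin-selected, grown without IL3; cells/well: L858R 400, L858R/C797S 600, exon 19del 800, FQEA 800. Cpds from 10 mM DMSO stock, 3-fold ×10 dilution, 120 nL per well; 72 h. CTG readout; IC50 via Hill equation.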

For experiment [2], the target named is T2, EGFR exon 19del (Ba/F3 cells) (Homo sapiens, UniProt P00533). The experiment can be described thus: Inhibitor activity on EGFR-dependent cell growth (CellTiter-Glo, 72 h), Ba/F3 EGFR exon 19del. As to conditions: Ba/F3 EGFR exon 19del cell growth, read-out: BaF3 Del19 IC50. Summed up:
as §1
(Cellular ATP, detected with luciferase, serves as a proxy for viable cell number.)

Experiment [3] concerns the target T3, EGFR L858R/C797S (Ba/F3 cells) (Homo sapiens, UniProt P00533, C797S/L858R).
T3 construct: expressed in transfected cells; host or cells: Ba/F3 (murine pro-B cells), retroviral transduction, puromycin selection, IL3-independent pool
The experiment can be described thus: Inhibitor activity on EGFR-dependent cell growth (CellTiter-Glo, 72 h), Ba/F3 EGFR L858R/C797S. As to conditions: read-out: BaF3 L858R/C797S IC50. From the text: Example A. Inhibitor Activity on EGFR-Dependent Cell Growth
Cell lines are generated by transducing Ba/F3 cells with retroviruses containing vectors with EGFR WT, EGFR L858R, EGFR exon 19del, EGFR L858R/C797S, EGFR exon 20 NPG Ins D770_N771, EGFR exon 20 ASV Ins V769_D770, EGFR exon 20 SVD Ins D770_N771, or EGFR exon 20 FQEA Ins A763_V764 genes and a puromycin selection marker. Transduced cells are selected with puromycin for 7 days and are then be transferred into culture media without Interleukin 3 (IL3). EGFR WT cells are maintained with supplemental EGF. Surviving cells are confirmed to express EGFR by Western blot and maintained as a pool. The IC50 date were included in Table 6 and Table 7.
(§2) 1.1 Cells are harvested from flask into cell culture medium and the cell number counted.
1.2 Cells are diluted with culture medium to the desired density and 40 μL of cell suspension is added into each well of 384-well cell culture plate and the seeding density is 800 (FQEA, exon 19del), 600 (WT, NPG, L858R/C797S), or 400 (ASV, SVD, L858R) cells/well.
(§3) 2 Compound Preparation and Treatment
(§4) 2.1 Test compounds are dissolved to 10 mM in a DMSO stock solution. 45 μL of stock solution is transferred to a 384 polypropylene plate (pp-plate). Perform 3-fold, 10-point dilution via transferring 15 μL compound into 30 μL DMSO using a TECAN (EVO200) liquid handler.
(§5) 2.2 Spin plates at room temperature at 1,000 RPM for 1 minute.
2.3 Transfer 120 nL of diluted compound from compound source plate into the cell plate.
2.4 After compound treatment for 72 hours, perform CTG detection for compound treatment plates as described in “Detection” section.
3.1 Plates are removed from incubators and equilibrated at room temperature for 15 minutes.
3.2 Thaw the CellTiter Glo reagents and allow to equilibrate to room temperature before the experiment.
3.3 Add 40 μL of CellTiter-Glo reagent into each well (at 1:1 to culture medium). Then place the plates at room temperature for 30 min followed by reading on EnVision.
4.1 Inhibition activity is calculated following the formula below:
% Inhibition=100×(LumHC−LumSample)/(LumHC−LumLC) • where HC is obtained from cells treated with 0.1% DMSO only; and LC is obtained from culture medium only.
4.2 2. Calculate the IC50 by fitting the Curve using Xlfit (v5.3.1.3), equation 201.
Y=Bottom+(Top−Bottom)/(1+10^((Log IC50−X)*HillSlope))

Experiment [4] addresses T1, EGFR L858R (Ba/F3 cells). The experiment can be described thus: Inhibitor activity on EGFR phosphorylation (pEGFR AlphaLISA, 2 h), Ba/F3 EGFR L858R.
From the text: (§6) Example B. Inhibitor Activity on EGFR phosphorylation (pEGFR)
(§7) EGFR mutant Ba/F3 cells were generated by transduction with retrovirus containing vectors expressing EGFR L858R, EGFR exon 19del, EGFR L858R/C797S, EGFR exon 20 NPG Ins D770_N771, EGFR exon 20 ASV Ins V769_D770, or EGFR exon 20 SVD Ins D770_N771 genes along with a puromycin selection marker. Transduced cells are selected with puromycin for 7 days and are then be transferred into culture media without Interleukin 3 (IL3). Surviving cells are confirmed to express EGFR by Western blot and maintained as a pool. CUTO14 cells were obtained from Dr. Robert C. Doebele at the University of Colorado. The IC50 date are included in Table 6 and Table 7.
as §2
(§8) 1.2 Cells are diluted with culture medium to the desired density and 40 μL of cell suspension is added into each well of 384-well cell culture plate and the seeding density is 50K cells/well (Ba/F3) or 12.5K cells/well (CUTO14).
as §3, §4, §5
(§9) 2.3 Transfer 5 nL of diluted compound from compound source plate into the cell plate.
(§10) 2.4 After compound treatment for 2 hours, perform pEGFR detection by AlphaLISA for compound treatment plates as described in “Detection” section.
(§11) 3 Detection by pEGFR AlphaLISA (Perkin-Elmer)
(§12) 3.1 Plates are removed from incubators and equilibrated at room temperature for 10 minutes, and media was removed
(§13) 3.2 10 μL of lysis buffer is added and plates shaken at 600 rpm for 1 hr.
(§14) 3.3 Prepare acceptor mix just before use and dispense 5 μL of acceptor mix to all the wells. Shake 350 rpm for Ihr in the dark
(§15) 3.4 Prepare donor mix under low light conditions prior to use. Dispense 5 μL of donor mix to all the wells. Mix well on the shaker, seal and wrap in aluminum foil and incubate 1.5 hrs at room temperature in the dark
(§16) 3.5 Transfer 18.5 μL mixture to OptiPlate 384, and read using an Envision. The IC50 date were included in Table 6 and Table 7.
Background: Alpha assays give light when donor and acceptor beads are brought close together.

Experiment [5] addresses T2, EGFR exon 19del (Ba/F3 cells). The experiment can be described thus: Inhibitor activity on EGFR phosphorylation (pEGFR AlphaLISA, 2 h), Ba/F3 EGFR exon 19del. To be noted: read-out: Del19 IC50 (pEGFR).
From the text: as §6, §7, §2, §8, §3, §4, §5, §9, §10, §11, §12, §13, §14, §15, §16

In experiment [6] the target is T3, EGFR L858R/C797S (Ba/F3 cells). The experiment can be described thus: Inhibitor activity on EGFR phosphorylation (pEGFR AlphaLISA, 2 h), Ba/F3 EGFR L858R/C797S.
From the text: as §6, §7, §2, §8, §3, §4, §5, §9, §10, §11, §12, §13, §14, §15, §16

The target in experiment [7] is T4, EGFR WT (Ba/F3 cells) (Homo sapiens, UniProt P00533).
T4 construct: expressed in transfected cells; host or cells: Ba/F3 (murine pro-B cells), retroviral transduction, puromycin selection, maintained with EGF
The experiment can be described thus: Inhibitor activity on EGFR-dependent cell growth (CellTiter-Glo, 72 h), Ba/F3 EGFR WT. As to conditions: read-out: BaF3 WT IC50. Summed up: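 This growth assay used Ba/F3 cells that depend on wild-type EGFR and are kept in EGF without IL3. Compounds were made up as 10 mM DMSO stocks and diluted 3-fold over 10 points. 120 nL went onto 600 cells/well. After 72 hours, 40 μL CellTiter-Glo was added and luminescence read on EnVision after 30 min.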

Experiment [8] concerns the target T5, EGFR exon 20 ASV Ins V769_D770 (Ba/F3 cells) (Homo sapiens, UniProt P00533, INS769ASV).
T5 construct: expressed in transfected cells; host or cells: Ba/F3 (murine pro-B cells), retroviral transduction, puromycin selection, IL3-independent pool
The experiment can be described thus: Inhibitor activity on EGFR-dependent cell growth (CellTiter-Glo, 72 h), Ba/F3 EGFR exon 20 ASV Ins. To be noted: read-out: BaF3 ASV IC50. Summed up: (§17)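 IC50s derive from a sigmoidal dose–response fit of CellTiter-Glo signal. The signal was normalised between […]-treated cells and cell-free medium. Ba/F3 mutant-EGFR cells, seeded at 400–800/well depending on the line, had 72 h of exposure to a 10-point, 3-fold compound series.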

For experiment [9], the target named is T6, EGFR exon 20 SVD Ins D770_N771 (Ba/F3 cells) (Homo sapiens, UniProt P00533, INS770SVD).
T6 construct: expressed in transfected cells; host or cells: Ba/F3 (murine pro-B cells), retroviral transduction, puromycin selection, IL3-independent pool
The experiment can be described thus: Inhibitor activity on EGFR-dependent cell growth (CellTiter-Glo, 72 h), Ba/F3 EGFR exon 20 SVD Ins. As to conditions: read-out: BaF3 SVD IC50. Summed up: as §17

Experiment [10] deals with T7, EGFR exon 20 FQEA Ins A763_V764 (Ba/F3 cells) (Homo sapiens, UniProt P00533, INS763FQEA).
T7 construct: expressed in transfected cells; host or cells: Ba/F3 (murine pro-B cells), retroviral transduction, puromycin selection, IL3-independent pool
The experiment can be described thus: Inhibitor activity on EGFR-dependent cell growth (CellTiter-Glo, 72 h), Ba/F3 EGFR exon 20 FQEA Ins. As to conditions: read-out: BaF3 FQEA IC50. The essentials:
as §1

For experiment [11], the target named is T8, EGFR exon 20 NPG Ins D770_N771 (Ba/F3 cells) (Homo sapiens, UniProt P00533, INS770NPG).
T8 construct: expressed in transfected cells; host or cells: Ba/F3 (murine pro-B cells), retroviral transduction, puromycin selection, IL3-independent pool
The experiment can be described thus: Inhibitor activity on EGFR-dependent cell growth (CellTiter-Glo, 72 h), Ba/F3 EGFR exon 20 NPG Ins. As to conditions: read-out: BaF3 NPG IC50. Summed up: as §17

For experiment [12], the target named is EGFR (CUTO14 cells) (Homo sapiens, UniProt P00533). The experiment can be described thus: Inhibitor activity on EGFR phosphorylation (pEGFR AlphaLISA, 2 h), CUTO14 cells. The essentials: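 Steps: seed cells (Ba/F3 50K, CUTO14 12.5K per well); add 3-fold, 10-point compound dilution; incubate 2 h; lyse 1 hr; add acceptor then donor beads (1.5 hrs, RT, dark); read AlphaLISA signal for IC50.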

T1 sequence (P00533 25-1210 L858R): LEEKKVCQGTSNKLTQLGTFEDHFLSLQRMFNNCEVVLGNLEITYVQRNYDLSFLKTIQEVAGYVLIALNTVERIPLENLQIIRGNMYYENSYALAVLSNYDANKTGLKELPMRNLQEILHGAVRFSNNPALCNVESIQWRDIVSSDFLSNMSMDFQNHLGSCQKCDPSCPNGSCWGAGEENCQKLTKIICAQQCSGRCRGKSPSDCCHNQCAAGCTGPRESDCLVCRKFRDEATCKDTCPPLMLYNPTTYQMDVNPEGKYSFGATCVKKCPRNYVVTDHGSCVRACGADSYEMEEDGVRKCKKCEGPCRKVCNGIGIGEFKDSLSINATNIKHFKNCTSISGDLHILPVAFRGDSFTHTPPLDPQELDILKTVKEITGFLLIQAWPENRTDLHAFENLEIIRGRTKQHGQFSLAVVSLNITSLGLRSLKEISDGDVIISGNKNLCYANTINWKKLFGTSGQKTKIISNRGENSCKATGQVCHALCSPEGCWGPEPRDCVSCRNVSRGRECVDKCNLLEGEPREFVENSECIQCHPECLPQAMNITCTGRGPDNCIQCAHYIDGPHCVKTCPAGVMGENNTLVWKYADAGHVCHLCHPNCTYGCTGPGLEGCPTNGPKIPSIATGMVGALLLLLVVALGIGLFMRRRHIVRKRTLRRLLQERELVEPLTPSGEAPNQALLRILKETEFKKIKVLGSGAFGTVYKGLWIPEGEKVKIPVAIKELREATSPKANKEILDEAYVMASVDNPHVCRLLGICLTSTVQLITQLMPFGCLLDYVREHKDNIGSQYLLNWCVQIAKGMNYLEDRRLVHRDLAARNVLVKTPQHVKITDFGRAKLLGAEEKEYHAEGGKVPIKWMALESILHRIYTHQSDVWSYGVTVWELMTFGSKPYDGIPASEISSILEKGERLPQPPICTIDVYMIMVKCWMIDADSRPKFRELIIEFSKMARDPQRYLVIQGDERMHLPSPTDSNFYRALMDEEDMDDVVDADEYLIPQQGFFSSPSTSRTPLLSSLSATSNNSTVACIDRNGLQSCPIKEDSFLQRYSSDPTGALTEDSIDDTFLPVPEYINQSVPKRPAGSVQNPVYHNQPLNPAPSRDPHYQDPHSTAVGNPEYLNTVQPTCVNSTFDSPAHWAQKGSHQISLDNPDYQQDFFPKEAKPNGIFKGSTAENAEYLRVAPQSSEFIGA
T6 sequence (P00533 with tags, fused parts or gaps INS770SVD): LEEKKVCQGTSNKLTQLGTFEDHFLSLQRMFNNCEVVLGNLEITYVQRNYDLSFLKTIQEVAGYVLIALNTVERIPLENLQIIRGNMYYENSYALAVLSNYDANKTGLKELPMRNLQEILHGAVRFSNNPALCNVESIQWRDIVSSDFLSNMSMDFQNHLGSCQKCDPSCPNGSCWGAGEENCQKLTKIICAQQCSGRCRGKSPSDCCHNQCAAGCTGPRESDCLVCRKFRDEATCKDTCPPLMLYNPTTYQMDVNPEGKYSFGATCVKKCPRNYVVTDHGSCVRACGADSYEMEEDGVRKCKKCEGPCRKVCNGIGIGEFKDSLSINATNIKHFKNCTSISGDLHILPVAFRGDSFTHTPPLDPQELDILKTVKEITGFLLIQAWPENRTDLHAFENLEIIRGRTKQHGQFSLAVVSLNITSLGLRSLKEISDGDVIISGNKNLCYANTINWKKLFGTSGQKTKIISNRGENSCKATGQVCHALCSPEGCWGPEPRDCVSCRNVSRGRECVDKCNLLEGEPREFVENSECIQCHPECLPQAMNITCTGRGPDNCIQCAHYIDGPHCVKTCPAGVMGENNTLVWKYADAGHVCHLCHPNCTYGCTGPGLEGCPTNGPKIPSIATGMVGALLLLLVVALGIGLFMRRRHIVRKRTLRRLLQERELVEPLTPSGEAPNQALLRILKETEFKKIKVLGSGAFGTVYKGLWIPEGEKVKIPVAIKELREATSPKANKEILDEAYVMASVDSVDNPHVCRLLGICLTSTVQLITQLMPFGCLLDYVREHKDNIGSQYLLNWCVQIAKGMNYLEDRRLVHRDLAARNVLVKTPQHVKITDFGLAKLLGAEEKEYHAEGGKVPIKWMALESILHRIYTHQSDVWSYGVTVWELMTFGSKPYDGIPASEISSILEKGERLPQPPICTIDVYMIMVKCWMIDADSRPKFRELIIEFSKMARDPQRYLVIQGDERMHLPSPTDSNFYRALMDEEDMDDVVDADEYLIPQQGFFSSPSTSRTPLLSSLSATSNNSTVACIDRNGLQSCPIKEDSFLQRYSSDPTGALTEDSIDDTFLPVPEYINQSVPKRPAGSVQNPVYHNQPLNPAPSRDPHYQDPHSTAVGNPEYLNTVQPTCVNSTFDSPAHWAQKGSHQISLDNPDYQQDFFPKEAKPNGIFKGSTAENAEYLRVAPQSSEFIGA
T3 sequence (P00533 25-1210 C797S/L858R): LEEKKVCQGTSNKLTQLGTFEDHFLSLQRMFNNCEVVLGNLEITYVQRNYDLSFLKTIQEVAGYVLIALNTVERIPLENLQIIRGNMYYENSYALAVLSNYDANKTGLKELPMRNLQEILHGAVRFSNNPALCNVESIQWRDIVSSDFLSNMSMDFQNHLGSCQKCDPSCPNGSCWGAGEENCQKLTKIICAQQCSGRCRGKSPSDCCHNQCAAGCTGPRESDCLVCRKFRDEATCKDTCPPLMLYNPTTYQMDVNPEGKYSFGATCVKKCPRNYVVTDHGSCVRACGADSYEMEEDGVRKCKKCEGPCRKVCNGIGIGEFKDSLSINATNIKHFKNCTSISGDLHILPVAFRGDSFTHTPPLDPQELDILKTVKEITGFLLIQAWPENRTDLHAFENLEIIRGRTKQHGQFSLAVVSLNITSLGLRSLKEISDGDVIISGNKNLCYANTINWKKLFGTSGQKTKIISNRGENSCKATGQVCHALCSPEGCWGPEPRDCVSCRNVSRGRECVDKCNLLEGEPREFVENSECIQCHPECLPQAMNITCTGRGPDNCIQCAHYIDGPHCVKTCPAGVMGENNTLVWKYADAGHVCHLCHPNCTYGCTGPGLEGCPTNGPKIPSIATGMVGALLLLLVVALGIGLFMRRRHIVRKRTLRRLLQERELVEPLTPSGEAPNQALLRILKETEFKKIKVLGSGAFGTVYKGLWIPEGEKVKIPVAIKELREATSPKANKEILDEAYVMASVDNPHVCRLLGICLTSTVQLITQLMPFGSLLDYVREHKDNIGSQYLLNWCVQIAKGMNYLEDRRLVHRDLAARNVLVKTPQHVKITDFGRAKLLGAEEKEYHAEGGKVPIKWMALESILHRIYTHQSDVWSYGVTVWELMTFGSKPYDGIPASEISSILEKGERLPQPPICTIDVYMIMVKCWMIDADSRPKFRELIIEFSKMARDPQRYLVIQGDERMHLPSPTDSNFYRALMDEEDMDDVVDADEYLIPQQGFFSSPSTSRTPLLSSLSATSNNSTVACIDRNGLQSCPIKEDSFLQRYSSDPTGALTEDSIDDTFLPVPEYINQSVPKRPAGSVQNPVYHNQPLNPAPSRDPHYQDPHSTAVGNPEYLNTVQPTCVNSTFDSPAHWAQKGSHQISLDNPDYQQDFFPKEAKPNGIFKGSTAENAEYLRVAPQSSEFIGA
T2 sequence (P00533 with tags, fused parts or gaps DEL746-750): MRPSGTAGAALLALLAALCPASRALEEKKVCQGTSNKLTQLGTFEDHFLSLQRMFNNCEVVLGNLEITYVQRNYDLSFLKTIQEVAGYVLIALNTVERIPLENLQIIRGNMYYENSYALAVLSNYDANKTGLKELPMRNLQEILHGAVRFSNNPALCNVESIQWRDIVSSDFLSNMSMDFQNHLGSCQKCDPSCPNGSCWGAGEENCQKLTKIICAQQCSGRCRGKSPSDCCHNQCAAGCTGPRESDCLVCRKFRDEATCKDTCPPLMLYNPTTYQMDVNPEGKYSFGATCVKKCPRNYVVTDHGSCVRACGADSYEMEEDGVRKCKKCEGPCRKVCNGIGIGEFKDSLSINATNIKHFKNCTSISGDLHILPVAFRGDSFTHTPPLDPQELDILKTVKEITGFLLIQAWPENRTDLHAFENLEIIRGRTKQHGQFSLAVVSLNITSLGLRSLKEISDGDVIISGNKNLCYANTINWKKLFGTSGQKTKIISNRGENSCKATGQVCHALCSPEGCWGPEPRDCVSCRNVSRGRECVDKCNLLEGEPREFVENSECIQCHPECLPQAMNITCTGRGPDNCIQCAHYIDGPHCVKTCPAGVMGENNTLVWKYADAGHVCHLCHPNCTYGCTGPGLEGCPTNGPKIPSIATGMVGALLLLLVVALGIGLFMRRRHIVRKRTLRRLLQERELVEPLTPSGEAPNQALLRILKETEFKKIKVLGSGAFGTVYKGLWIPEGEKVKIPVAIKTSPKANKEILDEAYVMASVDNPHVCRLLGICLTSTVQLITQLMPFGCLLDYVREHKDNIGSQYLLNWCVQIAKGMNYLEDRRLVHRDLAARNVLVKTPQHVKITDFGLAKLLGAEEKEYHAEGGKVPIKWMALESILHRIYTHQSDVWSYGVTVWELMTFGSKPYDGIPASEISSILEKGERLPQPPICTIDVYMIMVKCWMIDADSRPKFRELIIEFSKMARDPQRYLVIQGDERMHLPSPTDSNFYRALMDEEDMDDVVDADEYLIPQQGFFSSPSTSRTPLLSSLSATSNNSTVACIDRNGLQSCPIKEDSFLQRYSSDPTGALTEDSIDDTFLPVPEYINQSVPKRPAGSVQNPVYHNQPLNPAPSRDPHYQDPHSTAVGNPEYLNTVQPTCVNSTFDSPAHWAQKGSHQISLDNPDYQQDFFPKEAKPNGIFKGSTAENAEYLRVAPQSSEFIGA

Consider `COCC[C@H]1CNC(=O)c2c1[nH]c(-c1ccncn1)c2Nc1cccc(Cl)c1OC` [445b], for which the IC50 in experiment [1], in experiment [2], in [3], in experiment [4], in experiment [5] and in experiment [6] was less than 100 nM in each case. In addition, the IC50 in experiment [7] was greater than 1000 nM; in experiment [8], 100 to 1000 nM; in experiment [9] it was 100 to 1000 nM; in [10] it was 100 to 1000 nM.
With `COc1c(Cl)cc(F)cc1Nc1c(-c2ccnc(C)n2)[nH]c2c1C(=O)NC[C@@H]2C[C@@H]1COCCO1` [compound 651], the IC50 is less than 100 nM in experiment [3]; less than 100 nM in experiment [6]; 100 to 1000 nM in [7]; less than 100 nM in experiment [11]; less than 100 nM in [8]; less than 100 nM in experiment [9]. In [12], this molecule yielded an IC50 of less than 100 nM.
Turning to `COc1c(F)cccc1Nc1c(-c2ccnc(C)n2)[nH]c2c(C[C@@H]3COCCO3)c[nH]c(=O)c12` [compound 658], the IC50 was less than 100 nM in experiment [1]; less than 100 nM in experiment [2]; less than 100 nM in experiment [3]; less than 100 nM in experiment [6]; 100 to 1000 nM in experiment [7]; less than 100 nM in experiment [11]. In addition, the IC50 in experiment [8], in [9] and in experiment [12] was less than 100 nM in each case.
For `COc1c(Cl)cccc1Nc1c(-c2ccncc2F)[nH]c2c(C[C@@H]3COCCO3)c[nH]c(=O)c12` [compound 657], the IC50 in experiment [1] is less than 100 nM; in experiment [2], less than 100 nM; in experiment [3], less than 100 nM; in experiment [6], less than 100 nM; in experiment [7] it was 100 to 1000 nM; in [11], less than 100 nM. For the same molecule, the IC50 in experiment [8], in experiment [9] and in [12] was less than 100 nM each time.

Values taken from patent publication US20240101576A1, “HETEROCYCLIC INHIBITORS OF EGFR AND/OR HER2, FOR USE IN THE TREATMENT OF CANCER” (Scorpion Therapeutics, Inc., priority 2020, published 2024).
